Results reported in patent US20260262643A1, “HERBICIDAL BENZOXAZINES” (FMC CORPORATION, priority 2022, published 2026).

How the values were obtained:
blackgrass [1] = test: Test A preemergence; format: in vivo, Alopecurus myosuroides; conditions: 1000 g ai/ha, 0 to 100 scale (0 no effect, 100 complete control), 10 days
Description: (§1) Seeds of plant species selected from barnyardgrass (Echinochloa crusgalli), blackgrass (Alopecurus myosuroides), corn (Zea mays), foxtail, giant (giant foxtail, Setaria faberi), goosegrass (Eleusine indica), kochia (Bassia scoparia), oat, wild (wild oat, Avena fatua), pigweed, palmer (palmer amaranth, palmer pigweed, Amaranthus palmeri), Pigweed, Redroot (redroot pigweed, Amaranthus retroflexus), ragweed (common ragweed, Ambrosia artemisiifolia), ryegrass, Italian (italian ryegrass, Lolium multiflorum), soybean (Glycine max), and wheat (Triticum aestivum) were planted into a blend of loam soil and sand and treated preemergence with a directed soil spray using test chemicals formulated in a non-phytotoxic solvent mixture which included a surfactant. At the same time, plants selected from these crops and weed species and also galium (catchweed bedstraw, Galium aparine) and horseweed (Erigeron canadensis) were planted in pots containing the same blend of loam soil and sand and treated with postemergence applications of test chemicals formulated in the same manner. Plants ranged in height from 2 to 10 cm and were in the one- to two-leaf stage for the postemergence treatment. Treated plants and untreated controls were maintained in a greenhouse for 10 days, after which time all treated plants were compared to untreated controls and visually evaluated for injury. Plant response ratings, summarized in Table A, are based on a 0 to 100 scale where 0 is no effect and 100 is complete control. A dash (-) response means no test result.

goosegrass [2] = test: Test A postemergence; format: in vivo, Eleusine indica; conditions: 1000 g ai/ha, Postemergence; 0 to 100 scale
Description: as §1

horseweed = test: Test A postemergence; format: in vivo, Erigeron canadensis; conditions: 1000 g ai/ha, Postemergence; 0 to 100 scale
Description: as §1

ryegrass, Italian [3] = test: Test A preemergence; format: in vivo, Lolium multiflorum; conditions: 1000 g ai/ha, 0 to 100 scale (0 no effect, 100 complete control), 10 days
Description: as §1

blackgrass [4] = test: Test A postemergence; format: in vivo, Alopecurus myosuroides; conditions: 1000 g ai/ha, Postemergence; 0 to 100 scale
Description: as §1

goosegrass [5] = test: Test A preemergence; format: in vivo, Eleusine indica; conditions: 1000 g ai/ha, 0 to 100 scale (0 no effect, 100 complete control), 10 days
Description: as §1

foxtail, giant [6] = test: Test A preemergence; format: in vivo, Setaria faberi; conditions: 1000 g ai/ha, 0 to 100 scale (0 no effect, 100 complete control), 10 days
Description: as §1

foxtail, giant [7] = test: Test A postemergence; format: in vivo, Setaria faberi; conditions: 1000 g ai/ha, Postemergence; 0 to 100 scale
Description: as §1

kochia [8] = test: Test A preemergence; format: in vivo, Bassia scoparia; conditions: 1000 g ai/ha, 0 to 100 scale (0 no effect, 100 complete control), 10 days
Description: as §1

kochia [9] = test: Test A postemergence; format: in vivo, Bassia scoparia; conditions: 1000 g ai/ha, Postemergence; 0 to 100 scale
Description: as §1

pigweed, palmer [10] = test: Test A preemergence; format: in vivo, Amaranthus palmeri; conditions: 1000 g ai/ha, 0 to 100 scale (0 no effect, 100 complete control), 10 days
Description: as §1

pigweed, palmer [11] = test: Test A postemergence; format: in vivo, Amaranthus palmeri; conditions: 1000 g ai/ha, Postemergence; 0 to 100 scale
Description: as §1

ragweed [12] = test: Test A postemergence; format: in vivo, Ambrosia artemisiifolia; conditions: 1000 g ai/ha, Postemergence; 0 to 100 scale
Description: as §1

ryegrass, Italian [13] = test: Test A postemergence; format: in vivo, Lolium multiflorum; conditions: 1000 g ai/ha, Postemergence; 0 to 100 scale
Description: as §1

ragweed [14] = test: Test A preemergence; format: in vivo, Ambrosia artemisiifolia; conditions: 1000 g ai/ha, 0 to 100 scale (0 no effect, 100 complete control), 10 days
Description: as §1

galium = test: Test A postemergence; format: in vivo, Galium aparine; conditions: 1000 g ai/ha, Postemergence; 0 to 100 scale
Description: as §1

| Structure (SMILES) | Plant response rating, Blackgrass (blackgrass [1]) | Plant response rating, Goosegrass (goosegrass [2]) | Plant response rating, Horseweed (horseweed) | Plant response rating, Ryegrass, Italian (ryegrass, Italian [3]) | Plant response rating, Blackgrass (blackgrass [4]) | Plant response rating, Goosegrass (goosegrass [5]) | Plant response rating, Foxtail, Giant (foxtail, giant [6]) | Plant response rating, Foxtail, Giant (foxtail, giant [7]) | Plant response rating, Kochia (kochia [8]) | Plant response rating, Kochia (kochia [9]) | Plant response rating, Pigweed, Palmer (pigweed, palmer [10]) | Plant response rating, Pigweed, Palmer (pigweed, palmer [11]) | Plant response rating, Ragweed (ragweed [12]) | Plant response rating, Ryegrass, Italian (ryegrass, Italian [13]) | Plant response rating, Ragweed (ragweed [14]) | Plant response rating, Galium (galium) |
| --- | --- | --- | --- | --- | --- | --- | --- | --- | --- | --- | --- | --- | --- | --- | --- | --- |
| O=C(c1ccnc(-n2cncn2)c1)N1CC(CF)Oc2c(Cl)cccc21 (stereo not shown) [Compound 36] | 70 | 30 | 0 | 50 | 60 | 90 | 100 | 90 | 20 | 60 | 40 | 60 | 60 | 40 | 30 | 90 |
| Cc1nc(-c2cccc(C(=O)N3C[C@H](C)Oc4c(Cl)cccc43)c2)cs1 [Compound 125] | 0 | 0 | 0 | 60 | 20 | 20 | 20 | 20 | 0 | 50 | 30 | 40 | 0 | 0 | – | 40 |
